# Laboratory results from EPA's ToxValDB 9.5.
# Several values for one entry are separate records, joined by “and”; a condition that tells them apart may be missing. Equal values may be shown once.
# Legend:
# Rattus norvegicus [1] = settings: oral
# Canidae [2] = settings: oral, Beagle
# Rattus norvegicus [3] = system: Rattus norvegicus
# Canidae [4] = settings: subchronic; duration: 90 days; oral; diet; Beagle
# Rattus norvegicus [5] = settings: oral; remark: listed apart in the source
# Rattus norvegicus [6] = system: Rattus norvegicus; remark: listed apart in the source
# Rattus norvegicus [7] = settings: Hershberger; duration: 10 days; oral; gavage; Sprague-Dawley; inactive + Negative + Negative + neither + negative
# Rattus norvegicus [8] = system: Rattus norvegicus; remark: listed apart in the source
# Homo sapiens = settings: clinical
# Rattus norvegicus [9] = settings: for LOAEL: short-term
# Mus musculus = settings: short-term; duration: 14 days; oral; drinking water; M/F; B6C3F1; hepatic
# Rattus norvegicus [10] = settings: developmental; oral; diet; Fetus: Fetotoxicity
# Oryctolagus sp. = settings: acute, dermal
# Canidae [11] = settings: subchronic; oral; M/F; Dog Other; red blood cell and liver effects
# [12] = chronic, duration: 2 years, oral, diet, M/F, reduced body weight (males), inflammatory foci in kidneys of females
# [13] = chronic, oral, M/F, reduced body weight
# [14] = chronic, duration: 12 months, capsule, M/F, Decreased bodyweight gains & peripheral redness
# [15] = duration: 12 months, capsule, M/F, Decreased bodyweight gains & peripheral redness
# [16] = subchronic, duration: 90 days, oral, diet, Sprague-Dawley
# [17] = chronic, duration: 2 years, oral, drinking water, M/F, Long-Evans, Whole Body Effects
# [18] = developmental, oral, F, reduced delayed hypersensitivity response
# [19] = reproduction developmental, Long-Evans, Micromelia, ectromelia, curved femur and microfetalis
# [20] = chronic, oral, diet, M/F, kidney toxicity
# [21] = subchronic, duration: 90 days, inhalation, M/F, nasal turbinates
compound,measurement,setting,value
CCOP(=S)(OCC)ON=C(C#N)c1ccccc1 [Phoxim],NOEL,"Rattus norvegicus [1]; short-term, duration: 28 days, gavage, M/F, Slc: Wistar, Clinical Observation: Salivation + Body Weight Changes: decrease + Hematology: Hgb decrease, , Hct decrease, Plt increase, WBC increase + …",< 7.5 mg/kg-day
same,NOEL,"Rattus norvegicus [1]; short-term, duration: 28 days, gavage, M/F, Wistar, Clinical Observation: Salivation + Body Weight Changes: Weight gain decrease + Blood Chemistry: TP increase, ALB increase, A/G increasegamma…",< 7.5 mg/kg-day
same,NOEL,"Canidae [2]; chronic, duration: 2 years, diet, M/F, Liver effects and inhibition of brain acetylcholinesterase activity",0.38 mg/kg-day
same,NOEL,"Canidae [2]; duration: 2 years, feed, M/F, Liver effects and inhibition of brain acetylcholinesterase activity",0.38 mg/kg-day
Cc1c(Cc2cc(C(C)(C)C)c(O)c(C(C)(C)C)c2)c(C)c(Cc2cc(C(C)(C)C)c(O)c(C(C)(C)C)c2)c(C)c1Cc1cc(C(C)(C)C)c(O)c(C(C)(C)C)c1 [Ionox 330],LD50,"Rattus norvegicus [3]; acute, dermal, semiocclusive",> 2000 mg/kg
same,LD50,"Rattus norvegicus [3]; acute, injection, intraperitoneal, Sprague-Dawley",> 1000 mg/kg
same,LD50,"Rattus norvegicus [3]; acute, oral, Carworth 'E' and 'N' strains",> 5000 mg/kg
same,NOAEL,"Rattus norvegicus [3]; subchronic, duration: 90 days, oral, diet",> 960 mg/kg-day
same,NOAEL,"Rattus norvegicus [3]; subchronic, duration: 90 days, oral, diet, albino",480 mg/kg-day
same,NOAEL,Canidae [4],185 mg/kg-day
CC[C@@]1([C@@H]2O[C@@H]([C@H]3O[C@@](O)(CO)[C@H](C)C[C@@H]3C)C[C@@H]2C)CC[C@H]([C@]2(C)CC[C@]3(C[C@H](O)[C@@H](C)[C@@H]([C@@H](C)[C@@H](OC)[C@H](C)C(=O)O)O3)O2)O1 [Monensin],NOAEL,"Rattus norvegicus [5]; chronic, duration: 2 years, diet, M/F, Wistar, Decreased bodyweight gain",1.14 mg/kg-day
CC1(C)C(C=C(Cl)Cl)C1C(=O)OC(C#N)c1ccc(F)c(Oc2ccccc2)c1 (stereo unspecified) [Cyfluthrin],LEL,Rattus norvegicus [6]; [12],7.5 mg/kg-day
same,NOEL,Rattus norvegicus [6]; [12],2.5 mg/kg-day
same,NOEL,Rattus norvegicus [7],20 mg/kg-day
same,NOEL,"Rattus norvegicus [5]; chronic, duration: 2 years, diet, M/F, Wistar, Depressed bodyweight gain",2 mg/kg-day
same,NOEL,"Rattus norvegicus [5]; dietary / carcinogenicity, duration: 2 years, feed, M/F, Wistar, Depressed bodyweight gain",2 mg/kg-day
c1ccc2c(c1)oc1ccccc12 [Dibenzofuran],LOAEL,"Rattus norvegicus [8]; chronic, duration: 200 days, oral, diet, F, albino, Whole Body Effects",12.3 mg/kg-day
same,NOEL,"Rattus norvegicus [1]; short-term, duration: 28 days, gavage, F, Sprague-Dawley, Clinical Observation: Locomotor activity decrease, Salivation Soiled perineal region + Body Weight Changes: decrease + Urinalysis: Volume …",40 mg/kg-day
same,NOAEL,"Rattus norvegicus [1]; short-term, duration: 28 days, gavage, M/F, Sprague-Dawley, Clinical Observation: Locomotor activity decrease, Salivation Soiled perineal region + Body Weight Changes: decrease + Urinalysis: Volume …",40 mg/kg-day
COC[C@H]1O[C@@H](OC2OC[C@@H]3O[C@]4(O[C@H]3[C@H]2OC(=O)C(C)C)O[C@H](C)[C@@](O)(C(C)=O)[C@@H]2OCO[C@H]24)[C@@H](OC)[C@@H](O)[C@@H]1O[C@@H]1O[C@H](C)[C@H](OC)[C@H](O[C@H]2C[C@@]3(C)OC4(C[C@@H](O)[C@H](O[C@H]5C[C@@H](O)[C@H](OC(=O)c6c(C)c(Cl)c(O)c(Cl)c6OC)[C@@H](C)O5)[C@@H](C)O4)O[C@@H]3[C@@H](C)O2)[C@H]1O (stereo partly specified) [Avilamycin],NOEL,"Rattus norvegicus [5]; reproduction developmental, duration: 2 years, diet, M/F, Sprague-Dawley, no effects",150 mg/kg-day
CC1(C)C(C=C(Cl)c2ccc(Cl)cc2)C1C(=O)OC(C#N)c1ccc(F)c(Oc2ccccc2)c1 (stereo unspecified) [Flumethrin],NOAEL,"Rattus norvegicus [5]; developmental, Reduced pup survival and bodyweight gain. Maternal toxicity: salivation",0.37 mg/kg-day
FC(F)(Cl)Cl [Dichlorodifluoromethane],NOAEL,"Rattus norvegicus [8]; chronic, duration: 2 years, oral, gavage, M/F, Crl:CD(SD), Whole Body Effects",15 mg/kg-day
same,LOAEL,Rattus norvegicus [6]; [13],150 mg/kg-day
same,NOAEL,Rattus norvegicus [6]; [13],15 mg/kg-day
CC(=O)c1ccccc1 [Acetophenone],NOAEL,"Rattus norvegicus [8]; reproduction developmental, oral, gavage, M/F, Sprague-Dawley",225 mg/kg-day
same,NOAEL,"Rattus norvegicus [6]; subchronic, oral, M/F, general toxicity",423 mg/kg-day
O=S=O [Sulfur dioxide],LOAEL,"Homo sapiens; duration: 1 days, inhalation, M/F, respiratory",0.262 mg/m3
CC[C@H]1OC(=O)C[C@@H](O)[C@H](C)[C@@H](O[C@@H]2O[C@H](C)[C@@H](O)[C@H](N(C)C)[C@H]2O)[C@@H](CCN2C[C@H](C)C[C@H](C)C2)C[C@@H](C)C(=O)/C=C/C(C)=C/[C@@H]1CO[C@@H]1O[C@H](C)[C@@H](O)[C@@H](OC)[C@H]1OC [Tilmicosin],LOEL,Canidae [2]; [14],12 mg/kg-day
same,NOEL,Canidae [2]; [14],4 mg/kg-day
same,LOEL,Canidae [2]; [15],12 mg/kg-day
same,NOEL,Canidae [2]; [15],4 mg/kg-day
[V] [Vanadium],NOAEL,"Homo sapiens; duration: 12 weeks, oral, capsule, M/F, hematological",0.12 mg/kg-day
same,LOAEL,"Rattus norvegicus [9]; duration: 16 days, inhalation, F, Fischer 344, respiratory",0.56 mg/m3
CN1C(=O)[C@]23C[C@H]4C(C)(C)[C@]5(CNc6c5ccc5c6OC=CC(C)(C)O5)C[C@@]41CN2CC[C@@]3(C)O,LOAEL,"Canidae [2]; subchronic, duration: 90 days, capsule / gavage, M/F, Protruding nictitating membranes, dilated pupils, eye redness and decreased indirect pupillary light response",0.1 mg/kg-day
"Clc1cccc(Cl)c1Cl [1,2,3-Trichlorobenzene]",NOAEL,"Rattus norvegicus [8]; subchronic, duration: 13 weeks, oral, diet, M, Sprague-Dawley, Whole Body Effects, Hepatic",7.7 mg/kg-day
same,NOAEL,"Rattus norvegicus [3]; developmental, duration: 10 days, oral, gavage, Sprague-Dawley",600 mg/kg-day
same,NOAEL,"Rattus norvegicus [3]; reproduction developmental, duration: 10 days, oral, gavage, F, Sprague-Dawley",150 mg/kg-day
same,LOAEL,Rattus norvegicus [3]; [16],96 mg/kg-day
same,NOAEL,Rattus norvegicus [3]; [16],9.6 mg/kg-day
[Sb] [Antimony],LOAEL,Rattus norvegicus [8]; [17],0.35 mg/kg-day
same,LOAEL,"Rattus norvegicus [6]; chronic, oral, M/F, longevity, blood glucose, and cholesterol",0.35 mg/kg-day
same,NOAEL,"Rattus norvegicus [9]; subchronic, duration: 13 weeks, oral, drinking water, M/F, Sprague-Dawley, metabolic",0.06 mg/kg-day
same,NOAEL,Mus musculus,99 mg/kg-day
F [Hydrogen fluoride],LOAEL,"Homo sapiens; duration: 1 hours, inhalation, M, respiratory",0.409 mg/m3
"Oc1ccc(Cl)cc1Cl [2,4-Dichlorophenol]",LOAEL,"Rattus norvegicus [8]; subchronic, duration: 13 weeks, oral, drinking water, M/F, Sprague-Dawley, Whole Body Effects",3 mg/kg-day
same,NOAEL,"Rattus norvegicus [1]; subchronic, duration: 90 days, diet, M/F, Fischer 344, Clinical Observation: Hunched posture Rough hair coats + Body Weight Changes: decrease + Food Consumption: decrease, (palatability decrease…",480 mg/kg-day
same,LOAEL,Rattus norvegicus [6]; [18],3 mg/kg-day
same,NOEL,Rattus norvegicus [6]; [18],0.3 mg/kg-day
CCCSc1ccc2nc(NC(=O)OC)[nH]c2c1 [Albendazole],LOEL,Rattus norvegicus [5]; [19],10 mg/kg-day
same,NOEL,Rattus norvegicus [5]; [19],5 mg/kg-day
CCCC[C@@H](C)[C@@H](OC(=O)C[C@@H](CC(=O)O)C(=O)O)[C@H](C[C@@H](C)C[C@H](O)CCCC[C@@H](O)C[C@H](O)[C@H](C)N)OC(=O)C[C@@H](CC(=O)O)C(=O)O [Fumonisin B1],NOEL,"Rattus norvegicus [1]; short-term, duration: 28 days, diet, M/F, Fischer 344, Body Weight Changes: decrease + Blood Chemistry: Crn increase, TP increase, Cho increase, TG increase, ALT increase, ALP increase, AST …",< 99 ppm
same,NOEL,"Rattus norvegicus [5]; subchronic, duration: 90 days, diet, M/F, Fischer 344, Nephrotoxicity",0.2 mg/kg-day
OCCO [Ethylene glycol],NOAEL,"Rattus norvegicus [1]; chronic, duration: 16 weeks, diet, M, Wistar, Deaths + Body Weight Changes: Mean body weight decrease + Food Consumption: decrease + Water Consumption: increase + Urinalysis: SG decrease…",150 mg/kg-day
same,NOAEL,"Rattus norvegicus [1]; chronic, duration: 16 weeks, diet, M, Wistar, Water Consumption: increase + Urinalysis: SG decrease, VOL increase + Absolute Organ Weight: Kidney increase + Relative Organ Weight: Kidney…",150 mg/kg-day
same,NOEL,Rattus norvegicus [10],200 mg/kg-day
same,LOAEL,Rattus norvegicus [6]; [20],1000 mg/kg-day
same,NOEL,Rattus norvegicus [6]; [20],200 mg/kg-day
same,NOAEL,"Homo sapiens; duration: 30 days, inhalation, M, respiratory",23 mg/m3
[Cl][Sb]([Cl])[Cl] [Antimony trichloride],LOAEL,Rattus norvegicus [8]; [17],0.35 mg/kg-day
[Tl] [Thallium],LOAEL,"Rattus norvegicus [8]; subchronic, duration: 90 days, oral, gavage, M/F, Sprague-Dawley",0.04 mg/kg-day
c1ccc([C@H]2CN3CCSC3=N2)cc1 [Levamisole],LOEL,"Canidae [2]; immunotoxicology, duration: 14 months, capsule, Re-emergence of haemolytic anaemia",1.25 mg/kg-day
"FC(F)(F)c1ccc(Cl)c(Cl)c1 [1,2-Dichloro-4-(trifluoromethyl)benzene]",NOAEL,"Rattus norvegicus [8]; short-term, duration: 14 days, oral, gavage, M/F, Albino CD",60 mg/kg-day
same,LD50,"Rattus norvegicus [3]; acute, oral, CF Nelson",1150 mg/kg
same,NOAEL,"Rattus norvegicus [3]; short-term, duration: 28 days, oral, diet, Sprague-Dawley",20 ppm
same,LD50,Oryctolagus sp.,> 5000 mg/kg
same,LD50,Oryctolagus sp.; occlusive,5000 mg/kg
N#CCCCCC#N [Hexanedinitrile],NOAEL,"Rattus norvegicus [8]; subchronic, duration: 13 weeks, inhalation, whole body, M/F, Crl:CD(SD), Hematologic",31 mg/m3
same,LC50,"Rattus norvegicus [3]; acute, inhalation, Sprague-Dawley",1.71 µg/mL
same,LD50,"Rattus norvegicus [3]; acute, oral, gavage, Crl:CD(SD)",138 mg/kg and 301 mg/kg
same,NOAEL,"Rattus norvegicus [3]; developmental, duration: 14 days, oral, gavage, Sprague-Dawley",> 80 mg/kg-day
same,LD50,"Oryctolagus sp.; occlusive, New Zealand",2130 mg/kg
C=Cc1ccccc1 [Styrene],LOAEL,Canidae [11],400 mg/kg-day
same,NOAEL,Canidae [11],200 mg/kg-day
same,NOEL,"Rattus norvegicus [5]; chronic, duration: 2 years, drinking water, M/F, Sprague-Dawley, Decreased bodyweight, females",7.7 mg/kg-day and 14 mg/kg-day
same,NOAEL,"Homo sapiens; duration: 6 hours, inhalation, M, neurological",209 mg/m3
same,LOAEL,"Rattus norvegicus [9]; duration: 14 days, oral, gavage, M, Wistar, neurological",100 mg/kg-day
ClCC1CO1 (stereo unspecified) [Epichlorohydrin],LOAEL,"Rattus norvegicus [8]; reproduction developmental, duration: 23 days, oral, gavage, M, Long-Evans, reproductive",6.25 mg/kg-day
same,LOAEL,Rattus norvegicus [6]; [21],95 mg/m3
same,NOAEL,Rattus norvegicus [6]; [21],19 mg/m3
[I-].[Na+] [Sodium iodide],NOAEL,"Homo sapiens; duration: 14 days, oral, M/F, endocrine",0.01 mg/kg-day
O=[N+]([O-])c1cc(C(F)(F)F)ccc1Cl [4-Chloro-3-nitrobenzotrifluoride],LOAEL,"Rattus norvegicus [8]; short-term, duration: 28 days, oral, gavage, M, Sprague-Dawley",1 mg/kg-day
